Source: patent US9540343B2 (Gilead Sciences, Inc., priority 2011, dated 2017)

Assays:
HIV-IIIb = experiment: Test A: Antiviral assay in MT4 cells; assay type: cell-based, HIV-1; conditions: MT-4 cells infected with HIV-IIIb, 5 days, CellTiter-Glo; for inhibition at 2 µM: Human immunodeficiency virus 1, IIIB, MT4, 120 h, read-out: % inhibition at 2 μM, percent inhibition of virus-induced cell killing, from dose response curve at 2 uM drug
in vitro = conditions: human, uninfected MT-4 cells, CC50 (nM), same protocol as Test A, CellTiter-Glo
Summary of the method: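 Cytoprotection read-out: CellTiter-Glo chemiluminescence after 5 days at 37 °C of HIV-IIIb-infected MT-4 cells (m.o.i. 0.003) with compound in 10-point 3-fold dilutions, quadruplicate, 10% FBS. Cytotoxicity (CC50) measured identically without virus.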

| SMILES | inhibition at 2 µM (HIV-IIIb) [%] | CC50 at 5 days (in vitro) [nM] | % inhibition at 2 μM (HIV-IIIb; percent inhibition of virus-induced cell killing, from dose response curve at 2 uM drug) [%] |
| --- | --- | --- | --- |
| NC(=O)c1cc(-c2cccnc2[C@H](Cc2cc(F)cc(F)c2)NC(=O)Cn2nc(C(F)(F)F)c3c2CCC(F)(F)C3)ccc1F [Example 150, (S)-5-(2-(1-(2-(5,5-difluoro-3-(trifluoromethyl)-4,5,6,7-tetrahydro-1H-indazol-1-yl)acetamido)-2-(3,5-difluorophenyl)ethyl)pyridin-3-yl)-2-fluorobenzamide] | 15 | 18400 | – |
| NC(=O)c1cc(-c2cccnc2[C@H](Cc2cc(F)cc(F)c2)NC(=O)Cn2nc3c(c2C(F)(F)F)CCC3)ccc1F [Example 151E, (S)-5-(2-(2-(3,5-difluorophenyl)-1-(2-(3-(trifluoromethyl)-5,6-dihydrocyclopenta[c]pyrazol-2(4H)-yl)acetamido)ethyl)pyridin-3-yl)-2-fluorobenzamide] | 11 | 20300 | – |
| NC(=O)c1cc(-c2cccnc2[C@H](Cc2cc(F)cc(F)c2)NC(=O)Cc2nc3cccc4c3n2CCC4)ccc1F [Example 152D, (S)-5-(2-(2-(3,5-difluorophenyl)-1-(2-(5,6-dihydro-4H-imidazo[4,5,1-ij]quinolin-2-yl)acetamido)ethyl)pyridin-3-yl)-2-fluorobenzamide] | 81 | 28400 | – |
| NC(=O)c1cc(-c2cccnc2[C@H](Cc2cc(F)cc(F)c2)NC(=O)C2CCCN2C(=O)C2CCCC2)ccc1F (stereo partly drawn) [Example 153, N—((S)-1-(3-(3-carbamoyl-4-fluorophenyl)pyridin-2-yl)-2-(3,5-difluorophenyl)ethyl)-1-(cyclopentanecarbonyl)pyrrolidine-2-carboxamide] | 10 | 17300 | – |
| NC(=O)c1cc(-c2cccnc2[C@H](Cc2cc(F)cc(F)c2)NC(=O)Cn2nc(C(F)(F)F)c3c2C(O)C2CC32)ccc1F (stereo partly drawn) [Example 154, 5-(2-((1S)-2-(3,5-difluorophenyl)-1-(2-(5-hydroxy-3-(trifluoromethyl)-3b,4,4a,5-tetrahydro-1H-cyclopropa[3,4]cyclopenta[1,2-c]pyrazol-1-yl)acetamido)ethyl)pyridin-3-yl)-2-fluorobenzamide] | – | 36800 | 90 |
| NC(=O)c1cc(-c2cccnc2[C@H](Cc2cc(F)cc(F)c2)NC(=O)[C@@H]2C[C@@H](OCc3ccccc3)CN2)ccc1F [Example 157, (2S,4R)-4-(benzyloxy)-N—((S)-1-(3-(3-carbamoyl-4-fluorophenyl)pyridin-2-yl)-2-(3,5-difluorophenyl)ethyl)pyrrolidine-2-carboxamide] | 10 | 38300 | – |
| CC(C)(C)OC(=O)N1[C@@H](C(=O)N[C@@H](Cc2cc(F)cc(F)c2)c2ncccc2-c2ccc(F)c(C(N)=O)c2)CC[C@H]1c1ccccc1 [Example 158, (2R,5S)-tert-butyl 2-((S)-1-(3-(3-carbamoyl-4-fluorophenyl)pyridin-2-yl)-2-(3,5-difluorophenyl)ethylcarbamoyl)-5-phenylpyrrolidine-1-carboxylate] | 0 | 8500 | – |
| NC(=O)c1cc(-c2cccnc2[C@H](Cc2cc(F)cc(F)c2)NC(=O)Cn2nc(C(F)(F)Oc3ccccc3)c3c2CCCC3)ccc1F [Example 159, (S)-5-(2-(1-(2-(3-(difluoro(phenoxy)methyl)-4,5,6,7-tetrahydro-1H-indazol-1-yl)acetamido)-2-(3,5-difluorophenyl)ethyl)pyridin-3-yl)-2-fluorobenzamide] | 84 | 19100 | – |
| NC(=O)c1cc(-c2cccnc2[C@H](Cc2cc(F)cc(F)c2)NC(=O)Cn2nc3c(c2C(F)F)CC2CC32)ccc1F (stereo partly drawn) [Example 160, 5-(2-((1S)-1-(2-(3-(difluoromethyl)-4,4-a,5,5a-tetrahydro-2H-cyclopropa[4,5]cyclopenta[1,2-c]pyrazol-2-yl)acetamido)-2-(3,5-difluorophenyl)ethyl)pyridin-3-yl)-2-fluorobenzamide] | 45 | 29300 | – |
| CC(C)(C)OC(=O)N1C[C@@H](Oc2ccccc2)C[C@H]1C(=O)N[C@@H](Cc1cc(F)cc(F)c1)c1ncccc1-c1ccc(F)c(C(N)=O)c1 [Example 161, (2S,4S)-tert-butyl 2-((S)-1-(3-(3-carbamoyl-4-fluorophenyl)pyridin-2-yl)-2-(3,5-difluorophenyl)ethylcarbamoyl)-4-phenoxypyrrolidine-1-carboxylate] | 0 | 9310 | – |
| NC(=O)c1cc(-c2cccnc2[C@H](Cc2cc(F)cc(F)c2)NC(=O)COc2ccccc2)ccc1F [Example 164, (S)-5-(2-(2-(3,5-difluorophenyl)-1-(2-phenoxyacetamido)ethyl)pyridin-3-yl)-2-fluorobenzamide] | 2 | 29900 | – |
| NC(=O)c1cc(-c2cccnc2[C@H](Cc2cc(F)cc(F)c2)NC(=O)[C@@H]2C[C@H](Oc3ccccc3)CN2)ccc1F [Example 165, (2S,4S)—N—((S)-1-(3-(3-carbamoyl-4-fluorophenyl)pyridin-2-yl)-2-(3,5-difluorophenyl)ethyl)-4-phenoxypyrrolidine-2-carboxamide] | 0 | 52500 | – |
| NC(=O)c1cc(-c2cccnc2[C@H](Cc2cc(F)cc(F)c2)NC(=O)C2CCCN2Cc2ccccc2)ccc1F (stereo partly drawn) [Example 166, 1-benzyl-N—((S)-1-(3-(3-carbamoyl-4-fluorophenyl)pyridin-2-yl)-2-(3,5-difluorophenyl)ethyl)pyrrolidine-2-carboxamide] | 0 | 6360 | – |
| NC(=O)c1cc(-c2cccnc2[C@H](Cc2cc(F)cc(F)c2)NC(=O)[C@@H]2CC(=O)CN2)ccc1F [Example 167, (S)—N—((S)-1-(3-(3-carbamoyl-4-fluorophenyl)pyridin-2-yl)-2-(3,5-difluorophenyl)ethyl)-4-oxopyrrolidine-2-carboxamide] | 0 | > 53000 | – |
| NC(=O)c1cc(-c2cccnc2[C@H](Cc2cc(F)cc(F)c2)NC(=O)Cn2nc(C(F)(F)F)cc2C2CCCC2)ccc1F [Example 168B, (S)-5-(2-(1-(2-(5-cyclopentyl-3-(trifluoromethyl)-1H-pyrazol-1-yl)acetamido)-2-(3,5-difluorophenyl)ethyl)pyridin-3-yl)-2-fluorobenzamide] | 21 | 11100 | – |
| CCn1c(=O)c2c(n1CC(=O)N[C@@H](Cc1cc(F)cc(F)c1)c1ncccc1-c1ccc(F)c(C(N)=O)c1)CCCC2 [Example 170C, (S)-5-(2-(2-(3,5-difluorophenyl)-1-(2-(2-ethyl-3-oxo-2,3,4,5,6,7-hexahydro-1H-indazol-1-yl)acetamido)ethyl)pyridin-3-yl)-2-fluorobenzamide] | 22 | > 53200 | – |
| CC(C)(C)OC(=O)N1CCC[C@H]1C(=O)N[C@@H](Cc1cc(F)cc(F)c1)c1ncccc1-c1ccc(F)c(C(N)=O)c1 [Example 171, (S)-tert-butyl 2-((S)-1-(3-(3-carbamoyl-4-fluorophenyl)pyridin-2-yl)-2-(3,5-difluorophenyl)ethylcarbamoyl)pyrrolidine-1-carboxylate] | 4 | 11900 | – |
